The structures appear in SMILES notation. Like-named read-outs stand apart in the source and are kept apart here.

In patent US11136301B2, “Broad spectrum antiviral compounds and uses thereof” (The Regents Of The University Of California, priority 2015, dated 2021) one finds IC50 data, which are given here for 25 compounds.

The test system of this experiment is wild-type HIV-1 (HIV-1LAI) in H9 cells (non-permissive). The experiment can be described thus: microbe, parasite or virus in culture. It is filed as cell-based.
Where [1] appears, read: Human immunodeficiency virus 1, H9, read-out: Antiviral activity (IC50 μM) H9 cells, Table 5, wild-type HIV-1, non-permissive H9 cells.
The mark [2] stands for this setting: Human immunodeficiency virus 1, H9, read-out: Antiviral activity (IC50 μM) H9 cells, Table 8, wild-type HIV-1, non-permissive H9 cells.
The mark [3] stands for this setting: Human immunodeficiency virus 1, H9, read-out: Antiviral activity (IC50 μM) H9 cells, wild-type HIV-1 (HIV-1LAI), H9 cells (non-permissive), RT activity in culture supernatants, compounds 1 to 50 μM.
The mark [4] stands for this setting: read-out: Antiviral activity (IC50 μM) H9, Table 2, wild-type HIV-1, non-permissive H9 cells.
Where [5] appears, read: read-out: Antiviral activity (IC50 μM) H9 cells, Table 5, wild-type HIV-1, non-permissive H9 cells.
[6] abbreviates: read-out: Antiviral activity (IC50 μM) H9 cells, Table 8, wild-type HIV-1, non-permissive H9 cells.
Where [7] appears, read: read-out: Antiviral activity (IC50 μM) H9 cells, wild-type HIV-1 (HIV-1LAI), H9 cells (non-permissive), RT activity in culture supernatants, compounds 1 to 50 μM.

What is called IC50 is the midpoint of a concentration-inhibition curve. As for `COC(=O)c1ccc(S(=O)(=O)c2ccccc2-c2cn(-c3ccc(OC)cc3OC)nn2)cc1` [Compound 4by, Methyl 4-((2-(1-(2,4-dimethoxyphenyl)-1H-1,2,3-triazol-4-yl)phenyl)sulfonyl)benzoate], the IC50 was determined as 7.6 µM under setting [1], 7.6 µM under setting [2] and 7.6 µM under setting [3].
Consider `COc1cccc(OC)c1-n1cc(-c2ccccc2Sc2ccc(C(=O)O)cc2)nn1` [Compound 6gx, 2-Hydroxy-N,N,N-trimethylethanaminium 4-((2-(1-(2,6-dimethoxyphenyl)-1H-1,2,3-triazol-4-yl)phenyl)thio)benzoate], for which the concentration for half-maximal inhibition (IC50) by setting is: under setting [4], 52 µM; under setting [5], 52 µM; under setting [6], 52 µM; under setting [7], 52 µM.
On to `COc1cccc(OC)c1-n1cc(-c2ccccc2Sc2ccc(C(F)(F)F)cc2)nn1` [Compound 6dx, 1-(2,6-Dimethoxyphenyl)-4-(2-((4-(trifluoromethyl)phenyl)thio)phenyl)-1H-1,2,3-triazole], for which the concentration for half-maximal inhibition (IC50) by setting is: under setting [1], 5.3 µM; under setting [2], 5.3 µM; under setting [3], 5.3 µM.
As for `COc1cccc(OC)c1-n1cc(-c2ccccc2S(=O)(=O)c2ccc(C(F)(F)F)cc2)nn1` [Compound 6dy, 1-(2,6-Dimethoxyphenyl)-4-(2-((4-(trifluoromethyl)phenyl)sulfonyl)phenyl)-1H-1,2,3-triazole], the half-maximal inhibitory concentration (IC50) is over 50 µM under setting [1], over 50 µM under setting [2] and over 50 µM under setting [3].
Take `COc1cccc(OC)c1-n1cc(-c2ccccc2S(=O)(=O)c2ccc(C(=O)O)cc2)nn1` [Compound 6gy, 2-Hydroxy-N,N,N-trimethylethanaminium 4-((2-(1-(2,6-dimethoxyphenyl)-1H-1,2,3-triazol-4-yl)phenyl)sulfonyl)benzoate]: the 50% inhibitory concentration (IC50) is over 50 µM under setting [4], over 50 µM under setting [5], over 50 µM under setting [6] and over 50 µM under setting [7].
Consider `COc1cccc(-n2cc(-c3ccccc3S(=O)(=O)c3ccc(C(=O)O)cc3)nn2)c1OC` [Compound 3gy, 2-Hydroxy-N,N,N-trimethylethanaminium 4-((2-(1-(2,3-dimethoxyphenyl)-1H-1,2,3-triazol-4-yl)phenyl)sulfonyl)benzoate], for which the IC50 is, setting by setting: under setting [4], over 50 µM; under setting [5], over 50 µM; under setting [6], over 50 µM; under setting [7], over 50 µM.
For the compound `COc1ccc(OC)c(-n2cc(-c3ccccc3S(=O)(=O)c3ccc(C(F)(F)F)cc3)nn2)c1` [Compound 5dy, 1-(2,5-Dimethoxyphenyl)-4-(2-((4-(trifluoromethyl)phenyl)sulfonyl)phenyl)-1H-1,2,3-triazole], the IC50 runs as follows: under setting [1], 4.3 µM; under setting [2], 4.3 µM; under setting [3], 4.3 µM.
Regarding `COc1ccc(-n2cc(-c3ccccc3Sc3ccc(N)cc3)nn2)c(OC)c1` [Compound 4ex, 4-((2-(1-(2,4-Dimethoxyphenyl)-1H-1,2,3-triazol-4-yl)phenyl)thio)aniline], the IC50 by setting is: under setting [1], over 50 µM; under setting [2], over 50 µM; under setting [3], over 50 µM.
For `COc1ccc(-n2cc(-c3ccccc3Sc3ccc(C(F)(F)F)cc3)nn2)c(OC)c1` [Compound 4dx, 1-(2,4-Dimethoxyphenyl)-4-(2-((4-(trifluoromethyl)phenyl)thio)phenyl)-1H-1,2,3-triazole], the half-maximal inhibitory concentration (IC50) is 1.1 µM under setting [1], 1.1 µM under setting [2] and 1.1 µM under setting [3].
Consider `COc1ccc(-n2cc(-c3ccccc3Sc3ccc([N+](=O)[O-])cc3)nn2)c(OC)c1` [Compound 4ax, 1-(2,4-Dimethoxyphenyl)-4-(2-((4-nitrophenyl)thio)phenyl)-1H-1,2,3-triazole], for which the half-maximal inhibitory concentration (IC50) runs as follows: under setting [1], over 50 µM; under setting [2], over 50 µM; under setting [3], over 50 µM.
As to `COc1ccc(Sc2ccccc2-c2cn(-c3ccccc3OC)nn2)cc1` [Compound 2cx, 1-(2-Methoxyphenyl)-4-(2-((4-methoxyphenyl)thio)phenyl)-1H-1,2,3-triazole], the IC50 under setting [1] was determined as 13.6 µM, the half-maximal inhibitory concentration (IC50) under setting [2] was found to be 13.6 µM and the 50% inhibitory concentration (IC50) under setting [3] is 13.6 µM.
For the compound `COc1ccc(Sc2ccccc2-c2cn(-c3cccc(OC)c3OC)nn2)cc1` [Compound 3cx, 1-(2,3-Dimethoxyphenyl)-4-(2-((4-methoxyphenyl)thio)phenyl)-1H-1,2,3-triazole], the IC50 (Human immunodeficiency virus 1, H9, read-out: Antiviral activity (IC50 μM) H9 Cells, Table 4, wild-type HIV-1, non-permissive H9 cells) was 4.7 µM; the IC50 (Human immunodeficiency virus 1, H9, read-out: Antiviral activity (IC50 μM) H9 Cells, Table 7, wild-type HIV-1, non-permissive H9 cells) is 4.7 µM; the IC50 under setting [1] was determined as 4.7 µM; the IC50 under setting [2] was 4.7 µM; the IC50 under setting [3] came out at 4.7 µM.
Regarding `COc1ccc(Sc2ccccc2-c2cn(-c3c(F)cccc3OC)nn2)cc1` [Compound 7cx, 1-(2-Fluoro-6-methoxyphenyl)-4-(2-((4-methoxyphenyl)thio)phenyl)-1H-1,2,3-triazole], the IC50 is over 50 µM under setting [1], over 50 µM under setting [2] and over 50 µM under setting [3].
In the case of `COc1ccc(-n2cc(-c3ccccc3Sc3ccc(C(=O)O)cc3)nn2)c(OC)c1` [Compound 4gx, 2-Hydroxy-N,N,N-trimethylethanaminium 4-((2-(1-(2,4-dimethoxyphenyl)-1H-1,2,3-triazol-4-yl)phenyl)thio)benzoate], the IC50 is over 50 µM under setting [5], over 50 µM under setting [6] and over 50 µM under setting [7].
On to `COC(=O)c1ccc(S(=O)(=O)c2ccccc2-c2cn(-c3c(F)cccc3OC)nn2)cc1` [Compound 7by, Methyl 4-((2-(1-(2-fluoro-6-methoxyphenyl)-1H-1,2,3-triazol-4-yl)phenyl)sulfonyl)benzoate], for which the IC50 under setting [1] is over 50 µM, the half-maximal inhibitory concentration (IC50) under setting [2] is over 50 µM and the half-maximal inhibitory concentration (IC50) under setting [3] is over 50 µM.
As for `COc1ccc(-n2cc(-c3ccccc3S(=O)(=O)c3ccc(N)cc3)nn2)c(OC)c1` [Compound 4ey, 4-((2-(1-(2,4-Dimethoxyphenyl)-1H-1,2,3-triazol-4-yl)phenyl)sulfonyl)aniline], the 50% inhibitory concentration (IC50) is over 50 µM under setting [1], over 50 µM under setting [2] and over 50 µM under setting [3].
`COc1ccc(OC)c(-n2cc(-c3ccccc3Sc3ccc(C(=O)O)cc3)nn2)c1` [Compound 5gx, 2-Hydroxy-N,N,N-trimethylethanaminium 4-((2-(1-(2,5-dimethoxyphenyl)-1H-1,2,3-triazol-4-yl)phenyl)thio)benzoate]: the concentration for half-maximal inhibition (IC50) under setting [5] is over 50 µM, the IC50 under setting [6] is over 50 µM and the IC50 under setting [7] was over 50 µM.
As to `COc1ccc(-n2cc(-c3ccccc3S(=O)(=O)c3ccc(C(=O)O)cc3)nn2)c(OC)c1` [Compound 4fy, 4-((2-(1-(2,4-Dimethoxyphenyl)-1H-1,2,3-triazol-4-yl)phenyl)sulfonyl)benzoic Acid], the half-inhibitory concentration (IC50) by setting is: under setting [1], over 50 µM; under setting [2], over 50 µM; under setting [3], over 50 µM.
In the case of `COc1cccc(-n2cc(-c3ccccc3Sc3ccc(N)cc3)nn2)c1OC` [Compound 3ex, 4-((2-(1-(2,3-Dimethoxyphenyl)-1H-1,2,3-triazol-4-yl)phenyl)thio)aniline], the IC50 under setting [1] is 5 µM, the IC50 under setting [2] was found to be 5 µM and the half-maximal inhibitory concentration (IC50) under setting [3] came to 5 µM.
As to `COc1ccc(Sc2ccccc2-c2cn(-c3ccc(OC)cc3OC)nn2)cc1` [Compound 4cx, 1-(2,4-Dimethoxyphenyl)-4-(2-((4-methoxyphenyl)thio)phenyl)-1H-1,2,3-triazole], the half-inhibitory concentration (IC50) reads like this: under setting [1], over 50 µM; under setting [2], over 50 µM; under setting [3], over 50 µM.
As for `COc1cccc(F)c1-n1cc(-c2ccccc2Sc2ccc(C(F)(F)F)cc2)nn1` [Compound 7dx, 1-(2-Fluoro-6-methoxyphenyl)-4-(2-((4-(trifluoromethyl)phenyl)thio)phenyl)-1H-1,2,3-triazole], the IC50 under setting [1] turned out to be 10 µM, the IC50 under setting [2] amounted to 10 µM and the 50% inhibitory concentration (IC50) under setting [3] came out at 10 µM.
As to `COc1cccc(OC)c1-n1cc(-c2ccccc2Sc2ccc([N+](=O)[O-])cc2)nn1` [Compound 6ax, 1-(2,6-Dimethoxyphenyl)-4-(2-((4-nitrophenyl)thio)phenyl)-1H-1,2,3-triazole], the IC50 by setting is: under setting [1], 6.3 µM; under setting [2], 6.3 µM; under setting [3], 6.3 µM.
On to `COc1cccc(-n2cc(-c3ccccc3Sc3ccc(C(=O)O)cc3)nn2)c1OC` [Compound 3gx, 2-Hydroxy-N,N,N-trimethylethanaminium 4-((2-(1-(2,3-dimethoxyphenyl)-1H-1,2,3-triazol-4-yl)phenyl)thio)benzoate], for which the IC50 runs as follows: under setting [4], 4.3 µM; (read-out: Antiviral activity (IC50 μM) H9 Cells, Table 4, wild-type HIV-1, non-permissive H9 cells) 4.3 µM; (read-out: Antiviral activity (IC50 μM) H9 Cells, Table 7, wild-type HIV-1, non-permissive H9 cells) 4.3 µM; under setting [5], 4.3 µM; under setting [6], 4.3 µM; under setting [7], 4.3 µM.
Take `COc1ccc(Sc2ccccc2-c2cn(-c3c(OC)cccc3OC)nn2)cc1` [Compound 6cx, 1-(2,6-Dimethoxyphenyl)-4-(2-((4-methoxyphenyl)thio)phenyl)-1H-1,2,3-triazole]: the IC50 under setting [1] is over 50 µM, the IC50 under setting [2] is over 50 µM and the IC50 under setting [3] is over 50 µM.
As to `COc1ccccc1-n1cc(-c2ccccc2Sc2ccc(C(=O)O)cc2)nn1` [Compound 2gx, 2-Hydroxy-N,N,N-trimethylethanaminium 4-((2-(1-(2-methoxyphenyl)-1H-1,2,3-triazol-4-yl)phenyl)thio)benzoate], the IC50 runs as follows: under setting [4], over 50 µM; under setting [5], over 50 µM; under setting [6], over 50 µM; under setting [7], over 50 µM.
